{
  "source": "patent US20230107642A1",
  "about": "(Erasca, Inc., priority 2020, published 2023)",
  "data": [
    {"biological_target": "T1, K-Ras G12C (Homo sapiens, UniProt P01116, G12C)", "T1 construct": "This protein contained 188 amino acids in total, including an N-terminal 6-Histidine tag; made in house; host or cells: E. coli BL21", "experiment": "CAF assay (% CAF; method in Example 7, not in this part)", "assay_type": "binding", "conditions": "10 uM compound, 1 h incubation", "units": {"% CAF @ 10 uM, 1h": "%"}, "values": [
      {"smiles": "C=CC(=O)N1[C@H](C)CN(c2nc(=O)n3c4c(c(-c5ccc(F)cc5F)c(C(F)(F)F)cc24)SC[C@H](OC)C3)C[C@@H]1C", "note": "[Example 524, (3R)-8-((3S,5R)-4-acryloyl-3,5-dimethylpiperazin-1-yl)-11-(2,4-difluorophenyl)-3-methoxy-10-(trifluoromethyl)-3,4-dihydro-2H,6H-[1,4]thiazepino[2,3,4-ij]quinazolin-6-one]", "% CAF @ 10 uM, 1h": 95},
      {"smiles": "C=CC(=O)N1CCN(c2nc(=O)n3c4c(c(-c5ccc(F)cc5F)c(Cl)cc24)SC[C@H](OC)C3)CC1", "note": "[Example 525, (3R)-8-(4-acryloylpiperazin-1-yl)-10-chloro-11-(2,4-difluorophenyl)-3-methoxy-3,4-dihydro-2H,6H-[1,4]thiazepino[2,3,4-ij]quinazolin-6-one]", "% CAF @ 10 uM, 1h": 86},
      {"smiles": "C=CC(=O)N1[C@H](C)CN(c2nc(=O)n3c4c(c(-c5ccc(F)cc5F)c(Cl)cc24)SC[C@H](OC)C3)C[C@@H]1C", "note": "[Example 526, (3R)-8-((3S,5R)-4-acryloyl-3,5-dimethylpiperazin-1-yl)-10-chloro-11-(2,4-difluorophenyl)-3-methoxy-3,4-dihydro-2H,6H-[1,4]thiazepino[2,3,4-ij]quinazolin-6-one]", "% CAF @ 10 uM, 1h": 93},
      {"smiles": "C=CC(=O)N1CCN(c2nc(=O)n3c4c(c(-c5ccc(F)cc5)c(C(F)(F)F)cc24)SC[C@H](OC)C3)[C@@H](C)C1", "note": "[Example 527, (R)-8-((S)-4-acryloyl-2-methylpiperazin-1-yl)-11-(4-fluorophenyl)-3-methoxy-10-(trifluoromethyl)-3,4-dihydro-2H,6H-[1,4]thiazepino[2,3,4-ij]quinazolin-6-one]", "% CAF @ 10 uM, 1h": 97},
      {"smiles": "C=CC(=O)N1CCN(c2nc(=O)n3c4c(c(-c5ccc(F)cc5)c(Cl)cc24)SC[C@H](OC)C3)[C@@H](C)C1", "note": "[Example 528, (R)-8-((S)-4-acryloyl-2-methylpiperazin-1-yl)-10-chloro-11-(4-fluorophenyl)-3-methoxy-3,4-dihydro-2H,6H-[1,4]thiazepino[2,3,4-ij]quinazolin-6-one]", "% CAF @ 10 uM, 1h": 98},
      {"smiles": "C=CC(=O)N1CCN(c2nc(=O)n3c4c(c(-c5cc(Cl)c(F)cc5F)c(Cl)cc24)SC[C@@H](OC)C3)[C@@H](C)C1", "note": "[Example 529, (3S)-8-((S)-4-acryloyl-2-methylpiperazin-1-yl)-10-chloro-11-(5-chloro-2,4-difluorophenyl)-3-methoxy-3,4-dihydro-2H,6H-[1,4]thiazepino[2,3,4-ij]quinazolin-6-one]", "% CAF @ 10 uM, 1h": 95},
      {"smiles": "C=CC(=O)N1[C@H](C)CN(c2nc(=O)n3c4c(c(-c5cc(Cl)c(F)cc5F)c(Cl)cc24)SC[C@@H](OC)C3)C[C@@H]1C", "note": "[Example 530, (3S)-8-((3S,5R)-4-acryloyl-3,5-dimethylpiperazin-1-yl)-10-chloro-11-(5-chloro-2,4-difluorophenyl)-3-methoxy-3,4-dihydro-2H,6H-[1,4]thiazepino[2,3,4-ij]quinazolin-6-one]", "% CAF @ 10 uM, 1h": 92},
      {"smiles": "C=CC(=O)N1[C@H](C)CN(c2nc(=O)n3c4c(c(-c5ccc(F)cc5F)c(C(F)(F)F)cc24)SCC2(COC2)C3)C[C@@H]1C", "note": "[Example 531, 8′-((3S,5R)-4-Acryloyl-3,5-dimethylpiperazin-1-yl)-11′-(2,4-difluorophenyl)-10′-(trifluoromethyl)-2′H,4′H,6′H-spiro[oxetane-3,3′-[1,4]thiazepino[2,3,4-ij]quinazolin]-6′-one]", "% CAF @ 10 uM, 1h": 88.6},
      {"smiles": "C=CC(=O)N1CCN(c2nc(=O)n3c4c(c(-c5ccc(F)cc5)c(C(F)(F)F)cc24)SC[C@@H](OC)C3)[C@@H](C)C1", "note": "[Example 532, (S)-8-((S)-4-acryloyl-2-methylpiperazin-1-yl)-11-(4-fluorophenyl)-3-methoxy-10-(trifluoromethyl)-3,4-dihydro-2H,6H-[1,4]thiazepino[2,3,4-ij]quinazolin-6-one]", "% CAF @ 10 uM, 1h": 97},
      {"smiles": "C=CC(=O)N1CCN(c2nc(=O)n3c4c(c(-c5cc(Cl)c(F)cc5F)c(C(F)(F)F)cc24)SC[C@H](OC)C3)[C@@H](C)C1", "note": "[Example 533, (3R)-8-((S)-4-acryloyl-2-methylpiperazin-1-yl)-11-(5-chloro-2,4-difluorophenyl)-3-methoxy-10-(trifluoromethyl)-3,4-dihydro-2H,6H-[1,4]thiazepino[2,3,4-ij]quinazolin-6-one]", "% CAF @ 10 uM, 1h": 96},
      {"smiles": "C=CC(=O)N1CCN(c2nc(=O)n3c4c(c(-c5cc(Cl)c(F)cc5F)c(C(F)(F)F)cc24)SC[C@H](OC)C3)CC1", "note": "[Example 534, (3R)-8-(4-acryloylpiperazin-1-yl)-11-(5-chloro-2,4-difluorophenyl)-3-methoxy-10-(trifluoromethyl)-3,4-dihydro-2H,6H-[1,4]thiazepino[2,3,4-ij]quinazolin-6-one]", "% CAF @ 10 uM, 1h": 97},
      {"smiles": "C=CC(=O)N1[C@H](C)CN(c2nc(=O)n3c4c(c(-c5cc(Cl)c(F)cc5F)c(C(F)(F)F)cc24)SC[C@H](OC)C3)C[C@@H]1C", "note": "[Example 535, (3R)-8-((3S,5R)-4-acryloyl-3,5-dimethylpiperazin-1-yl)-11-(5-chloro-2,4-difluorophenyl)-3-methoxy-10-(trifluoromethyl)-3,4-dihydro-2H,6H-[1,4]thiazepino[2,3,4-ij]quinazolin-6-one]", "% CAF @ 10 uM, 1h": 96},
      {"smiles": "C=CC(=O)N1CCN(c2nc(=O)n3c4c(c(-c5ccc(F)cc5)c(Cl)cc24)SC[C@@H](OC)C3)CC1", "note": "[Example 536, (S)-8-(4-acryloylpiperazin-1-yl)-10-chloro-11-(4-fluorophenyl)-3-methoxy-3,4-dihydro-2H,6H-[1,4]thiazepino[2,3,4-ij]quinazolin-6-one]", "% CAF @ 10 uM, 1h": 97},
      {"smiles": "C=CC(=O)N1CCN(c2nc(=O)n3c4c(c(-c5ccc(F)cc5)c(Cl)cc24)SC[C@@H](OC)C3)[C@@H](C)C1", "note": "[Example 537, (S)-8-((S)-4-acryloyl-2-methylpiperazin-1-yl)-10-chloro-11-(4-fluorophenyl)-3-methoxy-3,4-dihydro-2H,6H-[1,4]thiazepino[2,3,4-ij]quinazolin-6-one]", "% CAF @ 10 uM, 1h": 96},
      {"smiles": "C=CC(=O)N1CCN(c2nc(=O)n3c4c(c(-c5cc(Cl)c(F)cc5F)c(Cl)cc24)SC[C@H](OC)C3)CC1", "note": "[Example 538, (3R)-8-(4-acryloylpiperazin-1-yl)-10-chloro-11-(5-chloro-2,4-difluorophenyl)-3-methoxy-3,4-dihydro-2H,6H-[1,4]thiazepino[2,3,4-ij]quinazolin-6-one]", "% CAF @ 10 uM, 1h": 97},
      {"smiles": "C=CC(=O)N1[C@H](C)CN(c2nc(=O)n3c4c(c(-c5cc(Cl)c(F)cc5F)c(C(F)(F)F)cc24)SC[C@@H](OC)C3)C[C@@H]1C", "note": "[Example 539, (3S)-8-((3S,5R)-4-acryloyl-3,5-dimethylpiperazin-1-yl)-11-(5-chloro-2,4-difluorophenyl)-3-methoxy-10-(trifluoromethyl)-3,4-dihydro-2H,6H-[1,4]thiazepino[2,3,4-ij]quinazolin-6-one]", "% CAF @ 10 uM, 1h": 96},
      {"smiles": "C=CC(=O)N1CCN(c2nc(=O)n3c4c(c(-c5ccc(F)cc5)c(Cl)cc24)SC[C@H](OC)C3)CC1", "note": "[Example 540, (R)-8-(4-acryloylpiperazin-1-yl)-10-chloro-11-(4-fluorophenyl)-3-methoxy-3,4-dihydro-2H,6H-[1,4]thiazepino[2,3,4-ij]quinazolin-6-one]", "% CAF @ 10 uM, 1h": 98}
    ]}
  ]
}
